# Results published in patent US8193356B2, “Heterocycle compound, and production process and application thereof” (Aska Pharmaceutical Co., Ltd., priority 2005, dated 2012).
row,Compound,melting point
1,"O=c1c2c(Cc3ccccc3)n[nH]c2c2cccnc2n1-c1cccc(OC(F)(F)F)c1 (hydrate or solvate) [Example 1, 3-Benzyl-5-(3-trifluoromethoxyphenyl)-1H-pyrazolo[4,3-c][1,8]-naphthyridin-4(5H)-one]",249 to 251 °C
2,"O=c1c2c(Cc3ccccc3)n[nH]c2c2cccnc2n1-c1cccc(C(F)(F)F)c1 (hydrate or solvate) [Example 2, 3-Benzyl-5-(3-trifluoromethylphenyl)-1H-pyrazolo[4,3-c][1,8]-naphthyridin-4(5H)-one]",226 to 228 °C
3,"Cc1ccc2c3[nH]nc(Cc4ccccc4)c3c(=O)n(-c3ccccc3)c2n1 (hydrate or solvate) [Example 3, 3-Benzyl-7-methyl-5-phenyl-1H-pyrazolo[4,3-c][1,8]-naphthyridin-4(5H)-one]",300 to 302 °C
4,"O=c1c2c(Cc3ccccc3OC(F)(F)F)n[nH]c2c2cccnc2n1-c1ccccc1 (hydrate or solvate) [Example 4, 5-Phenyl-3-(2-trifluoromethoxybenzyl)-1H-pyrazolo[4,3-c][1,8]naphthyridin-4(5H)-one]",275 °C (dec.)
5,"O=c1c2c(Cc3cccc(OC(F)(F)F)c3)n[nH]c2c2cccnc2n1-c1ccccc1 (hydrate or solvate) [Example 5, 5-Phenyl-3-(3-trifluoromethoxybenzyl)-1H-pyrazolo[4,3-c][1,8]naphthyridin-4(5H)-one]",253 to 254 °C
6,"O=c1c2c(Cc3ccc(OC(F)(F)F)cc3)n[nH]c2c2cccnc2n1-c1ccccc1 (hydrate or solvate) [Example 6, 5-Phenyl-3-(4-trifluoromethoxybenzyl)-1H-pyrazolo[4,3-c][1,8]naphthyridin-4(5H)-one]",216 to 218 °C
7,"COCc1n[nH]c2c1c(=O)n(-c1ccccc1)c1ncccc21 (hydrate or solvate) [Example 10, 3-(Methoxymethyl)-5-phenyl-1H-pyrazolo[4,3-c][1,8]naphthyridin-4(5H)-one]",263 to 265 °C
8,"CC(c1ccccc1)c1n[nH]c2c1c(=O)n(-c1ccccc1)c1ncccc21 (centres unmarked) (hydrate or solvate) [Example 11, 5-Phenyl-3-(1-phenylethyl)-1H-pyrazolo[4,3-c][1,8]naphthyridin-4(5H)-one]",267 to 268 °C
9,"O=c1c2c(Cc3ccccc3)n[nH]c2c2ncccc2n1-c1ccccc1 (hydrate or solvate) [Example 30, 3-Benzyl-5-phenyl-1H-pyrazolo[4,3-c][1,5]naphthyridin-4(5H)-one]",269 to 272 °C
10,"COc1ccccc1Cc1n[nH]c2c1c(=O)n(-c1cccc(OC(F)(F)F)c1)c1ncccc21 (hydrate or solvate) [Example 31, 3-(2-Methoxybenzyl)-5-(3-trifluoromethoxyphenyl)-1H-pyrazolo[4,3-c][1,8]-naphthyridin-4(5H)-one]",243 to 245 °C
11,"O=c1c2c(Cc3ccc(F)cc3)n[nH]c2c2cccnc2n1-c1cccc(OC(F)(F)F)c1 (hydrate or solvate) [Example 32, 3-(4-Fluorobenzyl)-5-(3-trifluoromethoxyphenyl)-1H-pyrazolo[4,3-c][1,8]-naphthyridin-4(5H)-one]",226 to 228 °C
12,"O=c1c2c(Cc3ccccc3Cl)n[nH]c2c2cccnc2n1-c1cccc(OC(F)(F)F)c1 (hydrate or solvate) [Example 33, 3-(2-Chlorobenzyl)-5-(3-trifluoromethoxyphenyl)-1H-pyrazolo[4,3-c][1,8]-naphthyridin-4(5H)-one]",273 to 275 °C
13,"Cc1ccccc1Cc1n[nH]c2c1c(=O)n(-c1cccc(OC(F)(F)F)c1)c1ncccc21 (hydrate or solvate) [Example 34, 3-(2-Methylbenzyl)-5-(3-trifluoromethoxyphenyl)-1H-pyrazolo[4,3-c][1,8]-naphthyridin-4(5H)-one]",240 to 242 °C
14,"O=c1c2c(Cc3ccccc3[N+](=O)[O-])n[nH]c2c2cccnc2n1-c1cccc(OC(F)(F)F)c1 (hydrate or solvate) [Example 35, 3-(2-Nitrobenzyl)-5-(3-trifluoromethoxyphenyl)-1H-pyrazolo[4,3-c][1,8]-naphthyridin-4(5H)-one]",274 to 276 °C
15,"COc1ccccc1Cc1n[nH]c2c1c(=O)n(-c1cccc(C(F)(F)F)c1)c1ncccc21 (hydrate or solvate) [Example 37, 3-(2-Methoxybenzyl)-5-(3-trifluoromethylphenyl)-1H-pyrazolo[4,3-c][1,8]-naphthyridin-4(5H)-one]",229 to 231 °C
16,"O=c1c2c(Cc3ccc(F)cc3)n[nH]c2c2cccnc2n1-c1cccc(C(F)(F)F)c1 (hydrate or solvate) [Example 38, 3-(4-Fluorobenzyl)-5-(3-trifluoromethylphenyl)-1H-pyrazolo[4,3-c][1,8]-naphthyridin-4(5H)-one]",243 to 245 °C
17,"O=c1c2c(Cc3ccccc3Cl)n[nH]c2c2cccnc2n1-c1cccc(C(F)(F)F)c1 (hydrate or solvate) [Example 39, 3-(2-Chlorobenzyl)-5-(3-trifluoromethylphenyl)-1H-pyrazolo[4,3-c][1,8]-naphthyridin-4(5H)-one]",276 to 278 °C
18,"Cc1ccccc1Cc1n[nH]c2c1c(=O)n(-c1cccc(C(F)(F)F)c1)c1ncccc21 (hydrate or solvate) [Example 40, 3-(2-Methylbenzyl)-5-(3-trifluoromethylphenyl)-1H-pyrazolo[4,3-c][1,8]-naphthyridin-4(5H)-one]",249 to 252 °C

row,Compound,melting point
1,"O=c1c2c(Cc3ccccc3[N+](=O)[O-])n[nH]c2c2cccnc2n1-c1cccc(C(F)(F)F)c1 (hydrate or solvate) [Example 41, 3-(2-Nitrobenzyl)-5-(3-trifluoromethylphenyl)-1H-pyrazolo[4,3-c][1,8]-naphthyridin-4(5H)-one]",282 to 284 °C
2,"O=c1c2c(CC3CCOCC3)n[nH]c2c2cccnc2n1-c1ccccc1 (hydrate or solvate) [Example 44, 5-Phenyl-3-(tetrahydro-2H-pyran-4-ylmethyl)-1H-pyrazolo[4,3-c][1,8]naphthyridin-4(5H)-one]",228 to 234 °C
3,"O=c1c2c(Cc3ccc(C(F)(F)F)cc3)n[nH]c2c2cccnc2n1-c1ccccc1 [Example 7, 5-Phenyl-3-(4-trifluoromethylbenzyl)-1H-pyrazolo[4,3-c][1,8]naphthyridin-4(5H)-one]",216 to 219 °C
4,"O=c1c2c(Cc3cccc(C(F)(F)F)c3)n[nH]c2c2cccnc2n1-c1ccccc1 [Example 9, 5-Phenyl-3-(3-trifluoromethylbenzyl)-1H-pyrazolo[4,3-c][1,8]naphthyridin-4(5H)-one]",303 to 305 °C
5,"O=c1c2c(CCCCCCc3ccccc3)n[nH]c2c2cccnc2n1-c1ccccc1 [Example 12, 5-Phenyl-3-(6-phenylhexyl)-1H-pyrazolo[4,3-c][1,8]naphthyridin-4(5H)-one]",150 to 151 °C
6,"O=c1c2c(CC3CCCCC3)n[nH]c2c2cccnc2n1-c1ccccc1 [Example 13, 3-Cyclohexylmethyl-5-phenyl-1H-pyrazolo[4,3-c][1,8]naphthyridin-4(5H)-one]",280 to 281 °C
7,"O=c1c2c(CCC(F)(F)F)n[nH]c2c2cccnc2n1-c1ccccc1 [Example 14, 5-Phenyl-3-(3,3,3-trifluoropropyl)-1H-pyrazolo[4,3-c][1,8]naphthyridin-4(5H)-one]",272 to 274 °C
8,"O=c1c2c(Cc3ccccc3)n[nH]c2c2cnccc2n1-c1ccccc1 [Example 15, 3-Benzyl-5-phenyl-1H-pyrazolo[4,3-c][1,6]naphthyridin-4(5H)-one]",284 to 287 °C
9,"O=c1c2c(Cc3ccccc3)n[nH]c2c2ccccc2n1-c1ccccc1 [Example 16, 3-Benzyl-5-phenyl-1H-pyrazolo[4,3-c]quinolin-4(5H)-one]",255 to 257 °C
10,"O=c1c2c(Cc3ccccc3C(F)(F)F)n[nH]c2c2cccnc2n1-c1cccc(C(F)(F)F)c1 [Example 17, 3-(2-Trifluoromethylbenzyl)-5-(3-trifluoromethylphenyl)-1H-pyrazolo[4,3-c][1,8]naphthyridin-4(5H)-one]",260 to 264 °C
11,"O=c1c2c(Cc3cccc(C(F)(F)F)c3)n[nH]c2c2cccnc2n1-c1cccc(C(F)(F)F)c1 [Example 18, 3-(3-Trifluoromethylbenzyl)-5-(3-trifluoromethylphenyl)-1H-pyrazolo[4,3-c][1,8]naphthyridin-4(5H)-one]",206 to 208 °C
12,"O=c1c2c(Cc3ccc(C(F)(F)F)cc3)n[nH]c2c2cccnc2n1-c1cccc(C(F)(F)F)c1 [Example 19, 3-(4-Trifluoromethylbenzyl)-5-(3-trifluoromethylphenyl)-1H-pyrazolo[4,3-c][1,8]naphthyridin-4(5H)-one]",145 to 148 °C
13,"O=c1c2c(Cc3ccccc3OC(F)(F)F)n[nH]c2c2cccnc2n1-c1cccc(C(F)(F)F)c1 [Example 20, 3-(2-Trifluoromethoxybenzyl)-5-(3-trifluoromethylphenyl)-1H-pyrazolo[4,3-c][1,8]naphthyridin-4(5H)-one]",247 to 252 °C
14,"O=c1c2c(Cc3cccc(OC(F)(F)F)c3)n[nH]c2c2cccnc2n1-c1cccc(C(F)(F)F)c1 [Example 21, 3-(3-Trifluoromethoxybenzyl)-5-(3-trifluoromethylphenyl)-1H-pyrazolo[4,3-c][1,8]naphthyridin-4(5H)-one]",129 to 132 °C
15,"O=c1c2c(Cc3ccc(OC(F)(F)F)cc3)n[nH]c2c2cccnc2n1-c1cccc(C(F)(F)F)c1 [Example 22, 3-(4-Trifluoromethoxybenzyl)-5-(3-trifluoromethylphenyl)-1H-pyrazolo[4,3-c][1,8]naphthyridin-4(5H)-one]",134 to 137 °C
16,"O=c1c2c(Cc3ccccc3C(F)(F)F)n[nH]c2c2cccnc2n1-c1cccc(OC(F)(F)F)c1 [Example 23, 5-(3-Trifluoromethoxyphenyl)-3-(2-trifluoromethylbenzyl)-1H-pyrazolo[4,3-c][1,8]naphthyridin-4(5H)-one]",252 to 255 °C
17,"O=c1c2c(Cc3cccc(C(F)(F)F)c3)n[nH]c2c2cccnc2n1-c1cccc(OC(F)(F)F)c1 [Example 24, 5-(3-Trifluoromethoxyphenyl)-3-(3-trifluoromethylbenzyl)-1H-pyrazolo[4,3-c][1,8]naphthyridin-4(5H)-one]",206 to 209 °C
